Measurements as given in US9464326B2, “Total and phosphorylated IL-1 receptor-associated kinase-1 and IL-1 receptor-associated kinase-4 as a biomarker for cancer progression and chemotherapy resistance” (University of Maryland, Baltimore, priority 2012, dated 2016).

Test system: CCRF-CEM cells
Test: Cell number and apoptosis assays
Type: cell-based, human
Settings: IRAK-1,-4 inhibitor 0-20 μM plus titrated drug, apoptosis by 7AAD at 48 hours, FIG. 23
Method: TLR ligands were diluted 2-fold. Cell lines (25-40×10^3/well) were cultured for 54 hours, whereas fresh patient-derived T-ALL cells (200×10^3/well) were cultured for 30 hours prior to adding [^3H]-thymidine for 18 hours. After this time point, cells were harvested with a Packard Filter-Mate-96 cell harvester (Perkin Elmer, Waltham, Mass., USA) and counted on Packard Top Count-NXT (Perkin Elmer, Waltham, Mass., USA). Results were expressed as average counts per minute (cpm). In some experiments CCRF-CEM cells were pre-treated with TLR1-TLR2 ligand (Pam3CysK4; 2.5 ug/ml) for 48 hrs, washed, and then cultured in the presence of varying concentrations of FBS. Forty-eight hours later, proliferation (±SD) was determined by ^3H-thymidine incorporation. Alternatively, apoptosis was measured by flow cytometry after staining cells with Annexin-V (BD Pharmingen, San Diego, Calif., USA) and propidium iodide (Sigma). Cell number was counted under microscopy by staining cells with trypan blue.
CCRF-CEM cells were treated with IRAK-1,-4 inhibitor for 24, 48, 72, and 96 hours.
The T-ALL cell line CCRF-CEM was cultured in the presence of 0, 1.2, 5, 10, and 20 μM IRAK-1,-4 inhibitor. (FIG. 23). To each concentration of IRAK-1,-4 inhibitor titrating doses of ABT-737 (1000→15 nM) vincristine, VS (10→0.1 nM), and paclitaxol, PAC (100→1.5 nM). […] Apoptosis was measure 48 hours later by staining cells with 7AAD and analyzed by flow cytometry.

CC[C@]1(O)C[C@H]2CN(CCc3c([nH]c4ccccc34)[C@@](C(=O)OC)(c3cc4c(cc3OC)N(C=O)[C@H]3[C@@](O)(C(=O)OC)[C@H](OC(C)=O)[C@]5(CC)C=CCN6CC[C@]43[C@@H]65)C2)C1 [vincristine]
synergy with IRAK-1,-4 inhibitor: synergy
